Test system: wildtype (WT) human fibroblast cell lines
Assay: Transcriptome-wide splicing by RNA sequencing (RNASeq), exon triplet PSI change;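 on Effect: six WT fibroblast lines treated seven days versus DMSO vehicle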;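 on T-PSI: T-PSI is average treated PSI after seven days of treatment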
Type: cell-based
Set-up: key to Effect: Exclusion; Inclusion; Unchanged
Text: FIG. 2A provides a representation of an exon triplet. Exon U is upstream of Exon X, which is upstream of Exon D. R1, R2 and R3 represent RNA sequencing (RNASeq) reads spanning the regions between two adjacent exons. UI1, I1X, XI2 and I2D are four regions flanking the four splice sites of the exon-triplet. Each flanking region consists of 25 exonic base pairs and 75 intronic base pairs.
FIG. 2B provides a volcano plot showing the ψ (PSI: Percent Spliced-In) changes in splicing after treatment with Compound (I). Each dot represents one of the 161,097 expressed exon triplets in human fibroblasts. The x axis represents the ψ changes after treatment and the y axis represents the False Discovery Rate (FDR) (log 10 transformed). […] The horizontal dashed line indicates an FDR of 0.1. The dots on the right side of the right vertical dashed line and above the horizontal dashed line represent the exon-triplets with an increase for Exon X inclusion (Δψ≥0.1 and FDR<0.1) while the dots on left side of the left vertical dashed line and above the horizontal dashed line represent an increase for Exon X exclusion (Δψ≤−0.1 and FDR<0.1). Black dots in-between the two vertical dashed lines represent exon-triplets unchanged from the treatment.
In some aspects, analysis is performed on data derived from the assay to measure the magnitude of splicing to determine the amount of exons spliced into an mRNA transcript that is produced in the presence of Compound (I) relative to the amount in the absence of Compound (I) or presence of a negative control. In a preferred aspect, the method utilized is calculation of change in Percent Spliced In (ΔPSI). […] The ΔPSI value is derived from the formula: […]
The values for “a” and “b” represent the number of reads supporting the probability for potential inclusion or exclusion of an exon in an RNA transcript. The “a” value is derived from the number of reads within an exon triplet covering, in 5′ to 3′ order: the last few bases (>1 nucleotide) of an upstream exon operably linked to the first few bases (>1 nucleotide) of a middle exon. The “b” value is derived from the number of reads within an exon triplet covering, in 5′ to 3′ order: the last few bases (>1 nucleotide) of the middle exon operably linked to the first few bases (>1 nucleotide) of a downstream exon. The number of reads will indicate whether the splice junction of a middle exon has been identified as potentially having a CNN Motif(s) by the CNN Model described herein, wherein the inclusion or exclusion of the middle exon may be modulated in the presence of Compound (I) to produce one or more mature RNA isoforms from the gene transcript. The value for “c” represents the number of reads supporting the exclusion of the middle exon.
The effect on splicing modulation and corresponding splice differences toward exon inclusion or exclusion was determined by counting the RNASeq reads covering two splice junctions of exon triplets (three consecutive exons: Exon U, Exon X, Exon D) and the corresponding intervening introns, then comparing the change in Percent Spliced In (ΔPSI or Δψ) of the middle exon (Exon X) after treatment (as shown in FIG. 2A)^52,53. 934 exon triplets were identified showing differential middle exon inclusion or exclusion in response to Compound (I) treatment. Of these, 254 were exon inclusion events (Δψ≥0.1 and FDR<0.1) and 680 were exon exclusion events (Δψ≤−0.1 and FDR<0.1) (as shown in FIG. 2B). […] The splicing results were evaluated by RT-PCR in independent replicate experiments, confirming all the calculated Δψ values. […]

[1] = PCNXL2 Exon 233160892-233161145
[2] = PCNXL2 Exon 233353645-233353677
[3] = PDE4DIP Exon 144859759-144859998

Question: How did the ΔPSI (PARP6 Exon 72543186-72543295) turn out when Clc1nc(NCc2ccncc2)c2cc[nH]c2n1 [Compound (I), 2-chloro-N-(pyridin-4-ylmethyl)-7H-pyrrolo[2,3-d]pyrimidin-4-amine] was run?
Answer: The ΔPSI was 0.148.

Question: What about the Effect (PARP6 Exon 72543186-72543298) of the same molecule?
Answer: The Effect was “Inc”.

Question: And the T-PSI (PARP6 Exon 72543186-72543298)?
Answer: Its T-PSI is 0.870.

Question: And the ΔPSI (PARP6 Exon 72543186-72543298)?
Answer: The ΔPSI was 0.164.

Question: And the Effect (PARP11 Exon 3938076-3938196)?
Answer: Its Effect is “Exc”.

Question: What about the T-PSI (PARP11 Exon 3938076-3938196) of the same molecule?
Answer: Its T-PSI is 0.250.

Question: What about the ΔPSI (PARP11 Exon 3938076-3938196) of the same molecule?
Answer: Its ΔPSI is −0.245.

Question: And the Effect (PATL1 Exon 59423429-59423518)?
Answer: Its Effect is “Exc”.

Question: And the T-PSI (PATL1 Exon 59423429-59423518)?
Answer: The T-PSI was 0.710.

Question: And the ΔPSI (PATL1 Exon 59423429-59423518)?
Answer: Its ΔPSI is −0.168.

Question: And the Effect (PCBP2 Exon 53861589-53861627)?
Answer: Its Effect is “Exc”.

Question: And the T-PSI (PCBP2 Exon 53861589-53861627)?
Answer: Its T-PSI is 0.431.

Question: What about the ΔPSI (PCBP2 Exon 53861589-53861627) of the same molecule?
Answer: The ΔPSI was −0.218.

Question: What about the Effect (PCID2 Exon 113845186-113845289) of the same molecule?
Answer: The Effect was “Exc”.

Question: And the T-PSI (PCID2 Exon 113845186-113845289)?
Answer: The T-PSI was 0.757.

Question: And the ΔPSI (PCID2 Exon 113845186-113845289)?
Answer: Its ΔPSI is −0.217.

Question: And the Effect (PCM1 Exon 17838100-17838264)?
Answer: The Effect was “Exc”.

Question: What about the T-PSI (PCM1 Exon 17838100-17838264) of the same molecule?
Answer: Its T-PSI is 0.444.

Question: What about the ΔPSI (PCM1 Exon 17838100-17838264) of the same molecule?
Answer: Its ΔPSI is −0.135.

Question: What about the Effect [1] of the same molecule?
Answer: The Effect was “Unc”.

Question: And the T-PSI [1]?
Answer: The T-PSI was 0.891.

Question: And the ΔPSI [1]?
Answer: Its ΔPSI is 0.009.

Question: And the Effect [2]?
Answer: Its Effect is “Exc”.

Question: And the T-PSI [2]?
Answer: Its T-PSI is 0.899.

Question: What about the ΔPSI [2] of the same molecule?
Answer: The ΔPSI was −0.101.

Question: What about the Effect (PCNXL4 Exon 60574304-60575045) of the same molecule?
Answer: Its Effect is “Exc”.

Question: What about the T-PSI (PCNXL4 Exon 60574304-60575045) of the same molecule?
Answer: Its T-PSI is 0.498.

Question: And the ΔPSI (PCNXL4 Exon 60574304-60575045)?
Answer: The ΔPSI was −0.151.

Question: What about the Effect (PCYT2 Exon 79863258-79863323) of the same molecule?
Answer: The Effect was “Exc”.

Question: What about the T-PSI (PCYT2 Exon 79863258-79863323) of the same molecule?
Answer: The T-PSI was 0.804.

Question: And the ΔPSI (PCYT2 Exon 79863258-79863323)?
Answer: Its ΔPSI is −0.150.

Question: What about the Effect [3] of the same molecule?
Answer: Its Effect is “Inc”.

Question: What about the T-PSI [3] of the same molecule?
Answer: The T-PSI was 0.821.

Question: And the ΔPSI [3]?
Answer: The ΔPSI was 0.140.

Question: What about the Effect (PDGFC Exon 157782581-157782641) of the same molecule?
Answer: The Effect was “Unc”.

Question: And the T-PSI (PDGFC Exon 157782581-157782641)?
Answer: The T-PSI was 0.141.

Question: And the ΔPSI (PDGFC Exon 157782581-157782641)?
Answer: The ΔPSI was 0.006.

Question: And the Effect (PDLIM2 Exon 22449064-22449181)?
Answer: Its Effect is “Exc”.

Question: And the T-PSI (PDLIM2 Exon 22449064-22449181)?
Answer: Its T-PSI is 0.542.

Question: What about the ΔPSI (PDLIM2 Exon 22449064-22449181) of the same molecule?
Answer: The ΔPSI was −0.322.

Question: What about the Effect (PDP1 Exon 94930139-94930173) of the same molecule?
Answer: The Effect was “Unc”.

Question: What about the T-PSI (PDP1 Exon 94930139-94930173) of the same molecule?
Answer: Its T-PSI is 0.184.

Question: What about the ΔPSI (PDP1 Exon 94930139-94930173) of the same molecule?
Answer: The ΔPSI was −0.002.

Question: And the Effect (PDPR Exon 70148773-70148833)?
Answer: The Effect was “Unc”.

Question: What about the T-PSI (PDPR Exon 70148773-70148833) of the same molecule?
Answer: Its T-PSI is 0.268.

Question: And the ΔPSI (PDPR Exon 70148773-70148833)?
Answer: Its ΔPSI is −0.005.

Question: What about the Effect (PDXDC2P Exon 70010714-70011906) of the same molecule?
Answer: The Effect was “Unc”.

Question: And the T-PSI (PDXDC2P Exon 70010714-70011906)?
Answer: The T-PSI was 0.246.

Question: What about the ΔPSI (PDXDC2P Exon 70010714-70011906) of the same molecule?
Answer: Its ΔPSI is −0.004.

Question: And the Effect (PDZD11 Exon 69509372-69509443)?
Answer: Its Effect is “Inc”.

Question: What about the T-PSI (PDZD11 Exon 69509372-69509443) of the same molecule?
Answer: The T-PSI was 0.417.

Question: What about the ΔPSI (PDZD11 Exon 69509372-69509443) of the same molecule?
Answer: The ΔPSI was 0.257.

Question: And the Effect (PEAK1 Exon 77576225-77576372)?
Answer: The Effect was “Exc”.

Question: And the T-PSI (PEAK1 Exon 77576225-77576372)?
Answer: Its T-PSI is 0.201.

Question: What about the ΔPSI (PEAK1 Exon 77576225-77576372) of the same molecule?
Answer: The ΔPSI was −0.170.

Question: What about the Effect (PEAK1 Exon 77657505-77657567) of the same molecule?
Answer: The Effect was “Unc”.

Question: And the T-PSI (PEAK1 Exon 77657505-77657567)?
Answer: Its T-PSI is 0.806.

Question: And the ΔPSI (PEAK1 Exon 77657505-77657567)?
Answer: Its ΔPSI is −0.001.

Question: What about the Effect (PEX1 Exon 92138643-92138725) of the same molecule?
Answer: The Effect was “Exc”.

Question: What about the T-PSI (PEX1 Exon 92138643-92138725) of the same molecule?
Answer: The T-PSI was 0.444.

Question: And the ΔPSI (PEX1 Exon 92138643-92138725)?
Answer: The ΔPSI was −0.341.

Question: What about the Effect (PEX5 Exon 7354837-7354947) of the same molecule?
Answer: Its Effect is “Exc”.

Question: And the T-PSI (PEX5 Exon 7354837-7354947)?
Answer: The T-PSI was 0.279.

Question: And the ΔPSI (PEX5 Exon 7354837-7354947)?
Answer: Its ΔPSI is −0.163.

Question: What about the Effect (PEX11A Exon 90229662-90229777) of the same molecule?
Answer: Its Effect is “Exc”.

Question: What about the T-PSI (PEX11A Exon 90229662-90229777) of the same molecule?
Answer: The T-PSI was 0.316.

Question: And the ΔPSI (PEX11A Exon 90229662-90229777)?
Answer: The ΔPSI was −0.403.

Question: What about the T-PSI (PFDN1 Exon 139680001-139680167) of the same molecule?
Answer: Its T-PSI is 0.458.

Question: What about the ΔPSI (PFDN1 Exon 139680001-139680167) of the same molecule?
Answer: The ΔPSI was −0.326.

Question: And the T-PSI (PFDN5 Exon 53690214-53690335)?
Answer: Its T-PSI is 0.175.

Question: And the ΔPSI (PFDN5 Exon 53690214-53690335)?
Answer: The ΔPSI was 0.008.

Question: What about the T-PSI (PFDN5 Exon 53690238-53690335) of the same molecule?
Answer: The T-PSI was 0.180.

Question: What about the ΔPSI (PFDN5 Exon 53690238-53690335) of the same molecule?
Answer: The ΔPSI was 0.007.

Question: What about the “exon triplets showing differential middle exon inclusion or exclusion in response to treatment” value (RNASeq, human fibroblasts, out of 161,097 expressed triplets) of the same molecule?
Answer: Its value is 934.

Question: What about the “unchanged-response set, exon triplets” value (Δψ≤0.01) of the same molecule?
Answer: Its value is 382.

Question: And the exon exclusion events (Δψ≤−0.1 and FDR<0.1)?
Answer: The exon exclusion events was 680.

Question: What about the exon inclusion events (Δψ≥0.1 and FDR<0.1) of the same molecule?
Answer: Its exon inclusion events is 254.
